Key:
[1] = target: OCT2 (Homo sapiens, UniProt O15244); test: In vitro transporter inhibition; assay type: in vitro ADME
[2] = target: OATP1B1 (Homo sapiens, UniProt Q9Y6L6); test: In vitro transporter inhibition; assay type: in vitro ADME
[3] = target: CYP2C19 (Homo sapiens, UniProt P33261); test: In vitro CYP inhibition; assay type: in vitro ADME
[4] = test system: CYP1A2; test: In vitro CYP induction; assay type: in vitro ADME
[5] = test system: CYP3A4; test: In vitro CYP induction; assay type: in vitro ADME
[6] = Human mass balance study, 14C-labeled oral dose; assay type: in vivo
[7] = test system: muscarinic receptors; test: Receptor binding, muscarinic; conditions: at 100 nM
[8] = test system: CYP2B6; test: In vitro CYP induction; assay type: in vitro ADME
[9] = target: CYP2C9 (Homo sapiens, UniProt P11712); test: In vitro CYP inhibition; assay type: in vitro ADME
[10] = target: OATP1B3 (Homo sapiens, UniProt Q9NPD5); test: In vitro transporter inhibition; assay type: in vitro ADME
[11] = Plasma protein binding; assay type: in vitro ADME; conditions: at 5 μM in human plasma (about 70-fold higher than therapeutic concentrations)
[12] = Pharmacokinetic studies (oral, intravenous, food effect)
[13] = target: OAT1 (Homo sapiens, UniProt Q4U2R8); test: In vitro transporter inhibition; assay type: in vitro ADME
[14] = target: CYP1A2 (Homo sapiens, UniProt P05177); test: In vitro CYP inhibition; assay type: in vitro ADME
[15] = target: BCRP (Homo sapiens, UniProt Q9UNQ0); test: In vitro transporter substrate; assay type: in vitro ADME
[16] = test system: UGT 1A1, 1A4, 2B15; AKR 1C1, 1B10, 1C4; CYP 3A4, 2C8, 1A2; test: In vitro studies of enzymes involved in metabolism; assay type: in vitro ADME
[17] = Drug interaction: CYP3A4 substrate midazolam; assay type: in vivo, human; conditions: single or multiple doses of lumateperone in patients with schizophrenia
[18] = target: (Homo sapiens, UniProt Q8TCC7); test: In vitro transporter inhibition; assay type: in vitro ADME
[19] = Pharmacokinetics in specific populations; assay type: in vivo, human
From the text: Use of lumateperone (e.g., lumateperone tosylate) is not recommended for patients with moderate (Child-Pugh class B) to severe hepatic impairment (Child-Pugh class C). […] No dosage adjustment is recommended for patients with mild hepatic impairment (Child-Pugh A).

[20] = test system: histaminergic receptors; test: Receptor binding, histaminergic; conditions: at 100 nM
[21] = target: CYP2D6 (Homo sapiens, UniProt P10635); test: In vitro CYP inhibition; assay type: in vitro ADME
[22] = target: dopamine D2 receptors (Homo sapiens, UniProt P14416); test: Receptor binding affinity, dopamine D2
[23] = target: P-gp (Homo sapiens, UniProt P08183); test: In vitro transporter substrate; assay type: in vitro ADME
[24] = Drug interaction: effects of other drugs on lumateperone exposure; design: species or system human; conditions: in vivo
From the text: Such concomitant use should therefore be avoided. Moderate CYP 3A4 inhibitors include amprenavir, ciprofloxacin, cyclosporine, diltiazem, erythromycin, fluconazole, fluvoxamine, and verapamil. Strong CYP 3A4 inhibitors include clarithromycin, grapefruit juice, itraconazole, voriconazole, nefazodone, ritonavir, and nelfinavir.
Such concomitant use should therefore be avoided. CYP 3A4 inducers include carbamazepine, phenytoin, rifampin, St. John's wort, bosentan, efavirenz, etravirine, modafinil, nafcillin, aprepitant, armodafinil, pioglitazone, and prednisone.

Sequence of dopamine D2 receptors (P14416 whole entry): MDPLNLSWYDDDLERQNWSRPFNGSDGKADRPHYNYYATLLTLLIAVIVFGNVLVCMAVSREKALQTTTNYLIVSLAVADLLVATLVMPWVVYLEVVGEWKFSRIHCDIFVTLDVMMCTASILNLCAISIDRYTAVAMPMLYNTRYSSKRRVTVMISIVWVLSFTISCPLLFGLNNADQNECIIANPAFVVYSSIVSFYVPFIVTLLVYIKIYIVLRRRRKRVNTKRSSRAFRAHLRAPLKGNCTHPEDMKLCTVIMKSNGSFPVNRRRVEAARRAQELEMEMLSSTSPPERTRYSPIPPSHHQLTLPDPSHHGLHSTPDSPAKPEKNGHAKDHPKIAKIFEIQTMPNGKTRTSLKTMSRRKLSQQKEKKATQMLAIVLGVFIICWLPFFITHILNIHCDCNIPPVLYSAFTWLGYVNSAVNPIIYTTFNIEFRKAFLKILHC
Sequence of CYP1A2 (Homo sapiens, UniProt P05177) (P05177 whole entry): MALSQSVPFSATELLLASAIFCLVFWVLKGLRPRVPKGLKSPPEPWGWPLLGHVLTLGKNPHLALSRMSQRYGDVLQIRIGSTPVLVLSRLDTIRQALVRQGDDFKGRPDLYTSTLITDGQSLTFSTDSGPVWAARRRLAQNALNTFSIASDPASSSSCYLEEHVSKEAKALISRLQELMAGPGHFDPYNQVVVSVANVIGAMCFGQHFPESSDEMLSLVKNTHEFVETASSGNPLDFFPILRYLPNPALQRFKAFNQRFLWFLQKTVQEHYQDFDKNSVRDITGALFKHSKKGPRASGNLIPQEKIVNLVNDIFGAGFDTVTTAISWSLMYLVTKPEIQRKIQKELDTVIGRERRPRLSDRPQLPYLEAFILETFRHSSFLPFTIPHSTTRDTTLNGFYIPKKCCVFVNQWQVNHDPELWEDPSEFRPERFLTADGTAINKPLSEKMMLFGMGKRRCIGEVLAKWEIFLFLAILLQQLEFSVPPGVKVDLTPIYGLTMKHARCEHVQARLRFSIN
Sequence of CYP2C19 (P33261 whole entry): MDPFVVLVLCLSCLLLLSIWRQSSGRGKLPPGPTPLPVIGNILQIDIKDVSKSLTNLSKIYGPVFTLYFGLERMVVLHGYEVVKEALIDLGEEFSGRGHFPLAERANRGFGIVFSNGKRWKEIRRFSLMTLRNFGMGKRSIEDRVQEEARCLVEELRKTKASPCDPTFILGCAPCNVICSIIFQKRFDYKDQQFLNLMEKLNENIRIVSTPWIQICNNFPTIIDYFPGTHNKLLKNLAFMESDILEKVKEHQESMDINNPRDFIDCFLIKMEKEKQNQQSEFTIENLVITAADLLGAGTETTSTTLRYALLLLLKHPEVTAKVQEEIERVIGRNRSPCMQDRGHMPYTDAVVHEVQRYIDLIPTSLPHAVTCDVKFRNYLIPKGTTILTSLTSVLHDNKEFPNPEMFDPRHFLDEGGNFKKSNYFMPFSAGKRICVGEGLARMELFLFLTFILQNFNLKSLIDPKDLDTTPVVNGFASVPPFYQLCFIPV
Sequence of CYP2C9 (P11712 whole entry): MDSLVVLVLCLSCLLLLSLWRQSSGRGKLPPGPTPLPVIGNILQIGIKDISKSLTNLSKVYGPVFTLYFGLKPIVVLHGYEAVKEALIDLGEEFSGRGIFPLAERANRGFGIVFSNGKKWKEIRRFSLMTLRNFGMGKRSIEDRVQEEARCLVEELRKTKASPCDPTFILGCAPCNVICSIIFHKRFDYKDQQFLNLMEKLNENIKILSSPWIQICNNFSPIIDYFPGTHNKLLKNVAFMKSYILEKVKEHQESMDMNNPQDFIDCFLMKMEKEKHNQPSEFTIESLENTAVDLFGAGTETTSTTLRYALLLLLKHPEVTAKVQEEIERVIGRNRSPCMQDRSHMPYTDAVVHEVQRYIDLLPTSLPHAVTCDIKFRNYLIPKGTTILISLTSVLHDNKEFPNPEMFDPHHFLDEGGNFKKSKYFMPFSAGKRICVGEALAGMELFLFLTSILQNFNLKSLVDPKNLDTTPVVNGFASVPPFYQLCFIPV
Sequence of P-gp (P08183 whole entry): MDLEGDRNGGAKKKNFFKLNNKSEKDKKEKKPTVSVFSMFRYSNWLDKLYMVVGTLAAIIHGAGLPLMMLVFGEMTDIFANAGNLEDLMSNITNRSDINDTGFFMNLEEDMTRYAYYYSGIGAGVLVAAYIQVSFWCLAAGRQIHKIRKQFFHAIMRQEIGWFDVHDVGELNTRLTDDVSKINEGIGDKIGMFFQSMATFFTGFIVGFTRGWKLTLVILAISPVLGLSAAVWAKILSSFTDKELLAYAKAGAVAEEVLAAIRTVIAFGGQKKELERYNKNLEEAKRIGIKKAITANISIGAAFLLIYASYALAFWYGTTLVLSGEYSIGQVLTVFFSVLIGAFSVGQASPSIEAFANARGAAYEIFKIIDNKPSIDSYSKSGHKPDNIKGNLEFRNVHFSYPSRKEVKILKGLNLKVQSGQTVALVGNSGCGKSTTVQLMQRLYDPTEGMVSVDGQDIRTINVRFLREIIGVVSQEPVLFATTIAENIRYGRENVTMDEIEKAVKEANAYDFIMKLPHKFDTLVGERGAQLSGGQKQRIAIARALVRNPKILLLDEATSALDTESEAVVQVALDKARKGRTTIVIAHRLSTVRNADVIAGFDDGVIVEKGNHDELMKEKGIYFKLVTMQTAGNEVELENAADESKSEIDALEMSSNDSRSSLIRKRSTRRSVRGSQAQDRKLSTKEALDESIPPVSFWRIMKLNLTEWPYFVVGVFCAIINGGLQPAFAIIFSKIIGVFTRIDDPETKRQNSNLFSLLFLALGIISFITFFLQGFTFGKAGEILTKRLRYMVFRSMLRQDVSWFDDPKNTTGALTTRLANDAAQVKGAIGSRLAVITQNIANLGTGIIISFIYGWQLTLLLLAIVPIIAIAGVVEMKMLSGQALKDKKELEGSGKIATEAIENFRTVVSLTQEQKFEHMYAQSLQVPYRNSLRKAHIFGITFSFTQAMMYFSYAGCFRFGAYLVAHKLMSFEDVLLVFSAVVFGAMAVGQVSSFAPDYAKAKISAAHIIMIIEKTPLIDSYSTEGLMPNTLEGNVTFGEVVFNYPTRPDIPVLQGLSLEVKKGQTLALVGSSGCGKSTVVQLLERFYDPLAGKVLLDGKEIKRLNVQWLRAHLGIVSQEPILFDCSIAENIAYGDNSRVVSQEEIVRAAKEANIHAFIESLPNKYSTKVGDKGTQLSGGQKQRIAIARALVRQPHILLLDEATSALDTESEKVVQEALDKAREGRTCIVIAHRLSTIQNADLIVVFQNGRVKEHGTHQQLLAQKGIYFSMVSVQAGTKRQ
Sequence of OCT2 (O15244 whole entry): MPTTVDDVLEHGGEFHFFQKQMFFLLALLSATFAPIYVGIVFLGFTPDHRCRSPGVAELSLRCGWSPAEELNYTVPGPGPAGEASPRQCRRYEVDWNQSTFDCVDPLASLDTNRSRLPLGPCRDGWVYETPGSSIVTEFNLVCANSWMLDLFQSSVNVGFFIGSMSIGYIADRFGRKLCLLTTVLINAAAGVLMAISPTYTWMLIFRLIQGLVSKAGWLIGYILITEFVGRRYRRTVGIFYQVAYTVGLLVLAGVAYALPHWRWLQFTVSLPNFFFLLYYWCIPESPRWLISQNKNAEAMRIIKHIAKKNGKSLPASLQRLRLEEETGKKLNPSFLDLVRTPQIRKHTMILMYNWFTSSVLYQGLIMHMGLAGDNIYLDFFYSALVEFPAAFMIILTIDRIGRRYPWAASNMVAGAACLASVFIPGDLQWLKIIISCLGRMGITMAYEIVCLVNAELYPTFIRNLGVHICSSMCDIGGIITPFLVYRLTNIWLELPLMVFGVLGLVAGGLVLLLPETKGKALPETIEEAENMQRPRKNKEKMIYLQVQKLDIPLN
Sequence of BCRP (Q9UNQ0 whole entry): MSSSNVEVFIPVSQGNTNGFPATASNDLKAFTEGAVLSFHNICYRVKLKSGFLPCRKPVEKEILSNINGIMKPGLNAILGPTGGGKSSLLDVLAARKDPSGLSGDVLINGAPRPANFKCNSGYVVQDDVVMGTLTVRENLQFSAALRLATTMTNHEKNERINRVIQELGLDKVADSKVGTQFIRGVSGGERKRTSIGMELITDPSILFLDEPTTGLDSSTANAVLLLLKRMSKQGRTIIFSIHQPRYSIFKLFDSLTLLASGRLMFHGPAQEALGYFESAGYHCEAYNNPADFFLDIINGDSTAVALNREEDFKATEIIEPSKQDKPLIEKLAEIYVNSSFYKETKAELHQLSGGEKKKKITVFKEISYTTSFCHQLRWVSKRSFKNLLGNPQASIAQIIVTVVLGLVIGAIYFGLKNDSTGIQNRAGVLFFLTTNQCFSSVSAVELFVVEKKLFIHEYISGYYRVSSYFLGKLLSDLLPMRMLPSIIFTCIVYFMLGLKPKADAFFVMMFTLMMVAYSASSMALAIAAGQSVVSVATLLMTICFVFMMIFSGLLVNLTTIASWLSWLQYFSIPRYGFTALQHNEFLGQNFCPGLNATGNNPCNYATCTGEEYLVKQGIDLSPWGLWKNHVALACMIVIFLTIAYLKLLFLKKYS
Sequence of (Homo sapiens, UniProt Q8TCC7) (Q8TCC7 whole entry): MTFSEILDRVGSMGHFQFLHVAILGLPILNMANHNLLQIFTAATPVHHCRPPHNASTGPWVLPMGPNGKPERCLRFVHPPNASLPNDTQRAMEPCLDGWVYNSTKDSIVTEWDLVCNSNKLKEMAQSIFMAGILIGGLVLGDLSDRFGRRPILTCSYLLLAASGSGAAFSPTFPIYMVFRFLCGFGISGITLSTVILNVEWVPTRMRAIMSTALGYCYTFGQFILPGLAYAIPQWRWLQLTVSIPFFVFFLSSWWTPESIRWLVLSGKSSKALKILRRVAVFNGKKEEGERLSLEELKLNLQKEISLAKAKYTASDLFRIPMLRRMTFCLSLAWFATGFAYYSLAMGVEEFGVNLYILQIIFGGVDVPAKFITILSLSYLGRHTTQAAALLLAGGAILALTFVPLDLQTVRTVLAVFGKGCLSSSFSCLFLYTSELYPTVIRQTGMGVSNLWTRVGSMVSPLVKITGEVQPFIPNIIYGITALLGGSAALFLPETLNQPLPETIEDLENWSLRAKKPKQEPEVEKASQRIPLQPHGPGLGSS

## CN1CCN2c3c(cccc31)[C@@H]1CN(CCCC(=O)c3ccc(F)cc3)CC[C@@H]12 [Lumateperone, 4-((6bR,10aS)-3-methyl-2,3,6b,9,10,10a-hexahydro-1H,7H-pyrido[3′,4′: 4,5]pyrrolo[1,2,3-de]quinoxalin-8-yl)-1-(4-fluoro-phenyl)-butan-1-one]
[1]
  inhibition of OCT2: little to no inhibition
[2]
  inhibition of OATP1B1: little to no inhibition
[3]
  inhibition of CYP2C19: little to no inhibition
[4]
  induction of CYP1A2: no induction
[5]
  induction of CYP3A4: no induction
[6]; after a single 14C-labeled oral dose
  lumateperone share of total plasma radioactivity: about 2.8%
[6]; human mass balance study
  dose excreted as unchanged lumateperone in the urine: Less than 1%
[6]; in vivo
  metabolites identified in vivo: more than twenty
[7]
  inhibition, muscarinic receptors: less than 50%
[8]
  induction of CYP2B6: no induction
[9]
  inhibition of CYP2C9: little to no inhibition
[10]
  inhibition of OATP1B3: little to no inhibition
[11]
  fraction unbound at 5 μM: 0.026
[12]; high-fat meal
  increase of mean AUC by food: 9%
  lowering of mean Cmax by food: 33%
[12]; human, in vivo, iv
  Vd: ~4.1 L/kg
  clearance: ~465 mL/min
  half-life: ~18 h
[12]; human, plasma, oral
  bioavailability: ~4.4%
[12]; human, plasma, oral, delay of median Tmax by food, high-fat meal
  Tmax: ~1 h
[12]; human, plasma, oral, median Tmax, fasted state
  Tmax: 1 h
[12]; human, plasma, oral, median Tmax, in the presence of food
  Tmax: 2 h
[12]; range of 21 mg to 56 mg
  increase in steady-state exposure with dose: approximately dose-proportional
[13]
  inhibition of OAT1: little to no inhibition
[14]
  inhibition of CYP1A2: little to no inhibition
[15]
  BCRP substrate: did not appear to be
[16]
  enzymes involved in metabolism: involved in the metabolism
[17]
  effect on pharmacokinetics of midazolam (CYP3A4 substrate) or its metabolite 1-hydroxymidazolam: No clinically significant differences
[18]
  inhibition of OATS: little to no inhibition
[19]; Child-Pugh class B and C
  exposure in patients with moderate and severe hepatic impairment: higher exposure
[19]; in vivo
  differences in pharmacokinetics based on age, sex, or race: No clinically significant differences
[20]
  inhibition, histaminergic receptors: less than 50%
[21]
  inhibition of CYP2D6: little to no inhibition
[22]
  Ki: 0.032 µM
[23]
  P-gp substrate: did not appear to be
[24]
  effect of concomitant CYP3A4 inducers on lumateperone exposure: decreases the exposure
  effect of concomitant moderate or strong CYP3A4 inhibitors on lumateperone exposure: increases lumateperone exposure

Reference: patent US20210186962A1, “METHODS OF SCHIZOPHRENIA TREATMENT” (INTRA-CELLULAR THERAPIES, INC., priority 2019, published 2021)
